In patent US6441021B1, “Sulfonated amino acid derivatives and metalloproteinase inhibitors containing the same” (Shionogi & Co., Ltd., priority 1996, dated 2002):

Target: T1, MMP-9 (92 kDa, gelatinase B; type IV collagenase) (Homo sapiens, UniProt P14780)
T1 construct: endogenous in cells; enzyme purified from the conditioned medium
Assay: Assay of type IV collagenase inhibitors: activated MMP-9 with type IV collagenase activity kit substrate, fluorescent intensity
Assay type: biochemical
Details: not given
Procedure: (1) Isolation and Purification of MMP-9 (92 kDa, Gelatinase B)
Type IV collagenase (MMP-9) was purified according to the methods descrived in the following literature.
Subsequently, activated MMP-9 was obtained by treating the pro-MMP-9 with trypsin.
(2) Assay Methods of Type IV Collagenase Inhibitors
Collagenase assay was performed using the activated MMP-9 described above and the substrate supplied in the type IV collagenase activity kit (YAGAI, inc.), according to the manufacturer's protocol. The following 4 assays are performed per compound (inhibitor).
(A) substrate (type IV collagenase), enzyme (MMP-9), inhibitor
(B) substrate (type IV collagenase), inhibitor
(C) substrate (type IV collagenase), enzyme (MMP-9)
(D) substrate (type IV collagenase)
According to the manufacturer's protocol, fluorescent intensity was measured and percent inhibition was determined by the following equation.
Inhibition (%)={1−(A−B)/(C−D)}×100

T1 sequence (P14780 107-707 limits assumed): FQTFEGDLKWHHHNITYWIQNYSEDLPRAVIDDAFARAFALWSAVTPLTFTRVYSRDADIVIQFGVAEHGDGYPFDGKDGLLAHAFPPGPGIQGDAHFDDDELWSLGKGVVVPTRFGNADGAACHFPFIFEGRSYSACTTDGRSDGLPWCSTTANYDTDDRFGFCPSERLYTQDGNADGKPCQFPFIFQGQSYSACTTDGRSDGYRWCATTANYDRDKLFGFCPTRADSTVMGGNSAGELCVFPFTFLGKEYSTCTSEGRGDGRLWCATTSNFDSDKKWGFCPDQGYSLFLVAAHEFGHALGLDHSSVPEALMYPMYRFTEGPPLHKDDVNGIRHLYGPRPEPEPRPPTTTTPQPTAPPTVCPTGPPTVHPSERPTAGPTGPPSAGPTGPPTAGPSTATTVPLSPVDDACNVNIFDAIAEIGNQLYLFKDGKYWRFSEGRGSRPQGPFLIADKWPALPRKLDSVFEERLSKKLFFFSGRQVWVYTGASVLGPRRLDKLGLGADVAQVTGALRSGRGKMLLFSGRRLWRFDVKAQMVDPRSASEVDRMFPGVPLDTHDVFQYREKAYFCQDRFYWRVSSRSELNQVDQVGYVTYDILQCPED

Structure (SMILES)	IC50
COc1ccc(C(=O)Nc2ccc(S(=O)(=O)N[C@@H](C(=O)O)C(C)C)cc2)cc1 [Example 200]	173 nM
CC(C)[C@H](C(=O)O)N(CCCCN)S(=O)(=O)c1ccc(Oc2ccccc2)cc1 [Example 255]	529 nM
O=Cn1cc(C[C@@H](NS(=O)(=O)c2ccc(-c3nnn(-c4ccccc4)n3)cc2)C(=O)O)c2ccccc21 [Example 219]	574 nM

Results, then the compound that gave them:

IC50	Structure (SMILES)
24 nM	O=C(O)[C@@H](Cc1c[nH]c2ccccc12)NS(=O)(=O)c1ccc(-c2nnn(-c3ccccc3)n2)cc1 [Example 210]
25.2 nM	COc1ccc(C(=O)Nc2ccc(S(=O)(=O)N[C@H](Cc3c[nH]c4ccccc34)C(=O)O)cc2)cc1 [Example 178]
265 nM	N#Cc1ccc(-n2nnc(-c3ccc(S(=O)(=O)N[C@H](Cc4ccccc4)C(=O)O)cc3)n2)cc1 [Example 235]

Same assay, conditions: activated MMP-9, type IV collagenase activity kit substrate, fluorescent intensity; concentration at which percent inhibition reaches 50%

IC50	Structure (SMILES)
0.39 nM	CC(C)[C@@H](NS(=O)(=O)c1ccc(Oc2ccccc2)cc1)C(=O)NO [Example 1b-1-63]

Same assay, conditions: inhibition of type IV collagenase (MMP-9), concentration at which percent inhibition reaches 50%

IC50	Structure (SMILES)
230 nM	Cc1ccc(-c2ccc(S(=O)(=O)N[C@@H](C(=O)O)C(C)C)s2)cc1 [Example 1a-3-7]
350 nM	CN(C)c1ccc(N=Nc2ccc(S(=O)(=O)N[C@H](Cc3ccccc3)C(=O)O)cc2)cc1 [Example 1a-1-86]

Test system: not given
Assay: not given
Details: not given

Structure (SMILES)	melting point
O=C(O)[C@@H](Cc1c[nH]c2ccccc12)NS(=O)(=O)c1ccc(-c2nnn(-c3ccc(Br)cc3)n2)cc1 (hydrate or solvate) [Example 240]	205 to 207 °C
Cc1ccc(C(=O)Nc2ccc(S(=O)(=O)N[C@@H](C(=O)O)C(C)C)cc2)cc1 (hydrate or solvate) [Example 196]	227 to 229 °C
O=Cn1cc(C[C@@H](NS(=O)(=O)c2ccc(-c3nnn(-c4ccccc4)n3)cc2)C(=O)O)c2ccccc21 (hydrate or solvate) [Example 219]	111 to 114 °C
CSc1ccc(-n2nnc(-c3ccc(S(=O)(=O)N[C@H](Cc4ccccc4)C(=O)O)cc3)n2)cc1 (hydrate or solvate) [Example 246]	222 to 224 °C
O=C(Nc1ccc(S(=O)(=O)N[C@H](Cc2c[nH]c3ccccc23)C(=O)O)cc1)c1ccc([N+](=O)[O-])cc1 (hydrate or solvate) [Example 180]	211 to 213 °C
Cc1ccc(-n2nnc(-c3ccc(S(=O)(=O)N[C@H](Cc4ccccc4)C(=O)O)cc3)n2)cc1 (hydrate or solvate) [Example 233]	226 to 227 °C
CC(C)[C@@H](NS(=O)(=O)c1ccc(NC(=O)c2ccccc2)cc1)C(=O)O (hydrate or solvate) [Example 199]	226 to 227 °C
COc1ccc(C(=O)Nc2ccc(S(=O)(=O)N[C@H](Cc3c[nH]c4ccccc34)C(=O)O)cc2)cc1 (hydrate or solvate) [Example 178]	233 to 234 °C
COc1ccc(-n2nnc(-c3ccc(S(=O)(=O)N[C@H](Cc4ccccc4)C(=O)O)cc3)n2)cc1 (hydrate or solvate) [Example 234]	214 to 216 °C
O=C(O)[C@@H](Cc1ccccc1)NS(=O)(=O)c1ccc(-c2nnn(-c3ccc(Cl)cc3)n2)cc1 (hydrate or solvate) [Example 232]	204 to 206 °C
Cc1ccc(-n2nnc(-c3ccc(S(=O)(=O)N[C@@H](C(=O)O)C(C)C)cc3)n2)cc1 (hydrate or solvate) [Example 242]	206 to 207 °C
COc1ccc(C(=O)Nc2ccc(S(=O)(=O)N[C@@H](C(=O)O)C(C)C)cc2)cc1 (hydrate or solvate) [Example 200]	220 to 221 °C
O=C(O)C(Cc1cccc2ccccc12)NS(=O)(=O)c1ccc(-c2nnn(-c3ccccc3)n2)cc1 (centres unmarked) (hydrate or solvate) [Example 218]	225 to 227 °C
O=C(Nc1ccc(S(=O)(=O)N[C@H](Cc2c[nH]c3ccccc23)C(=O)O)cc1)c1ccc(Br)cc1 (hydrate or solvate) [Example 183]	215 to 218 °C
CCC(C)[C@@H](NS(=O)(=O)c1ccc(-c2nnn(-c3ccc(OC)cc3)n2)cc1)C(=O)O (some centres unmarked) (hydrate or solvate) [Example 222]	204 to 207 °C
CSc1ccc(-n2nnc(-c3ccc(S(=O)(=O)N[C@H](Cc4c[nH]c5ccccc45)C(=O)O)cc3)n2)cc1 (hydrate or solvate) [Example 247]	213 to 216 °C
CC(C)[C@@H](NS(=O)(=O)c1ccc(-c2nnn(-c3ccc(F)cc3)n2)cc1)C(=O)O (hydrate or solvate) [Example 243]	208 to 209 °C
CC(C)[C@@H](NS(=O)(=O)c1ccc(NC(=O)c2ccc(-c3ccccc3)cc2)cc1)C(=O)O (hydrate or solvate) [Example 195]	254 to 256 °C
COc1ccc(C(=O)Nc2ccc(S(=O)(=O)N[C@@H](C(=O)O)C(C)(C)C)cc2)cc1 (hydrate or solvate) [Example 203]	214 to 216 °C
Cc1ccc(-n2nnc(-c3ccc(S(=O)(=O)N[C@H](Cc4c[nH]c5ccccc45)C(=O)O)cc3)n2)cc1 (hydrate or solvate) [Example 241]	199 to 201 °C
O=C(Nc1ccc(S(=O)(=O)N[C@H](Cc2c[nH]c3ccccc23)C(=O)O)cc1)c1ccc(F)cc1 (hydrate or solvate) [Example 185]	170 to 175 °C

The remaining lines, values ahead:

melting point	Structure (SMILES)
194 to 195 °C	CSc1ccc(-n2nnc(-c3ccc(S(=O)(=O)N[C@@H](C(=O)O)C(C)C)cc3)n2)cc1 (hydrate or solvate) [Example 245]
195 to 196 °C	COc1ccc(-n2nnc(-c3ccc(S(=O)(=O)N[C@H](Cc4c[nH]c5ccccc45)C(=O)O)cc3)n2)cc1 [Example 220]
225 to 227 °C	O=C(O)[C@@H](Cc1ccccc1)NS(=O)(=O)c1ccc(-c2nnn(-c3ccc(C4CCCCC4)cc3)n2)cc1 (hydrate or solvate) [Example 237]
244 to 249 °C	CSc1ccc(C(=O)Nc2ccc(S(=O)(=O)N[C@H](Cc3c[nH]c4ccccc34)C(=O)O)cc2)cc1 (hydrate or solvate) [Example 184]
240 to 242 °C	CC(C)[C@@H](NS(=O)(=O)c1ccc(NC(=O)c2ccc([N+](=O)[O-])cc2)cc1)C(=O)O (hydrate or solvate) [Example 201]
190 to 191 °C	O=C(O)[C@@H](Cc1ccccc1)NS(=O)(=O)c1ccc(-c2nnn(-c3ccc([N+](=O)[O-])cc3)n2)cc1 (hydrate or solvate) [Example 230]
227 to 228 °C	CC(C)[C@@H](NS(=O)(=O)c1ccc(-c2nnn(-c3ccc(Br)cc3)n2)cc1)C(=O)O (hydrate or solvate) [Example 225]
236 to 238 °C	CN(C)c1ccc(C(=O)Nc2ccc(S(=O)(=O)N[C@H](Cc3c[nH]c4ccccc34)C(=O)O)cc2)cc1 (hydrate or solvate) [Example 181]
240 to 244 °C	Cc1ccc(C(=O)Nc2ccc(S(=O)(=O)N[C@H](Cc3c[nH]c4ccccc34)C(=O)O)cc2)cc1 (hydrate or solvate) [Example 182]
205 to 207 °C	O=C(O)[C@@H](Cc1ccccc1)NS(=O)(=O)c1ccc(-c2nnn(-c3ccc(F)cc3)n2)cc1 (hydrate or solvate) [Example 231]
190 to 192 °C	N#Cc1ccc(-n2nnc(-c3ccc(S(=O)(=O)N[C@H](Cc4ccccc4)C(=O)O)cc3)n2)cc1 (hydrate or solvate) [Example 235]
